We go through ten molecules from patent publication US20250129078A1, “ERBB2 INHIBITORS” (Cogent Biosciences, Inc., priority 2023, published 2025).

As usually defined, the IC50 is the concentration that gives 50% inhibition.

The assay has as its target EGFR WT (Homo sapiens (Human), UniProt P00533). The assay is described as follows: ErbB enzyme assay (CisBio HTRF-KinEASE-TK), EGFR WT. The following applies: ATP at Km (25 μM), 1 h incubation. It counts as biochemical. In a few lines:
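HTRF KinEASE-TK kinase assay, 1 h at ambient temperature with three-fold serial compound dilutions, then 1 h detection with Sa-XL665/TK-Ab-Cryptate. IC50 is the 50 POC point of a 4-parameter logistic fit.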
For orientation: In TR-FRET formats the signal depends on donor and acceptor labels being close together.

EGFR WT, sequence (P00533 25-1210): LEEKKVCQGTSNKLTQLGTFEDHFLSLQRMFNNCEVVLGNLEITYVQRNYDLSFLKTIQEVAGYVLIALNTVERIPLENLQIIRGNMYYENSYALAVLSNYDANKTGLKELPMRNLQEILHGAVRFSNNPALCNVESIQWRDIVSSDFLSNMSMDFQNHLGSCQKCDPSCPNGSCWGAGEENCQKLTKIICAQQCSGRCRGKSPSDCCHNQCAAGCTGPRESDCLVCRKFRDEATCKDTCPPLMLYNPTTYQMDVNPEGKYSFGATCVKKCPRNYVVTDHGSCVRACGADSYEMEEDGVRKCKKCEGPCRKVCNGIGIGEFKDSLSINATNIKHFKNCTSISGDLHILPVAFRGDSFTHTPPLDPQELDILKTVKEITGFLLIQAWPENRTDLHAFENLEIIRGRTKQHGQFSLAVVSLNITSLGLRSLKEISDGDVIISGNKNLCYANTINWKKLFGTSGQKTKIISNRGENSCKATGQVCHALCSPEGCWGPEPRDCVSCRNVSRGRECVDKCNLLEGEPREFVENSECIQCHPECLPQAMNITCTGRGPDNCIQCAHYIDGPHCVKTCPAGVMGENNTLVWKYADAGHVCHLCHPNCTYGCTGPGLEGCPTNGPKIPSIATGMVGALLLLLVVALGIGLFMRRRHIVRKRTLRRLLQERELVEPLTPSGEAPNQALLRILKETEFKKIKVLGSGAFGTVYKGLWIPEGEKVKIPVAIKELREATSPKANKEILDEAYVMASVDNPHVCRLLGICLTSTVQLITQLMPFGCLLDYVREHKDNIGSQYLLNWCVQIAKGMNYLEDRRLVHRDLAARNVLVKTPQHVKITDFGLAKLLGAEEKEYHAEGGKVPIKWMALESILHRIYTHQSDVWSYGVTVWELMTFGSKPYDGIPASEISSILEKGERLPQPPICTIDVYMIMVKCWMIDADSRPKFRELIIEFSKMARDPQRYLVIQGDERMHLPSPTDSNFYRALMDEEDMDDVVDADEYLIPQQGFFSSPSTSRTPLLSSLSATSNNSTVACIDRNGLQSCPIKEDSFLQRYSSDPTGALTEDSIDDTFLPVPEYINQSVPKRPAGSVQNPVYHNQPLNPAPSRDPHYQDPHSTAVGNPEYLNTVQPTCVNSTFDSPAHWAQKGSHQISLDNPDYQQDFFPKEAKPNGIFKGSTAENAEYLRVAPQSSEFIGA

Turning to `C=CC(=O)N[C@H]1CN(c2ccc3ncnc(Nc4ccc(Oc5ccc6c(c5)nnn6C)c(C)c4F)c3n2)CC[C@@H]1C` (single isomer, unassigned) [Compound 346], the concentration for half-maximal inhibition (IC50) lay within 100 to 500 nM.

The molecule `Cc1cc(Nc2ncnc3ccc(N4CC5CCC(C4)N5C(=O)/C=C/C(F)F)nc23)ccc1Oc1ccc2c(c1)nnn2C` [Compound 358, (E)-4,4-difluoro-1-(3-(4-((3-methyl-4-((1-methyl-1H-benzo[d][1,2,3]triazol-5-yl)oxy)phenyl)amino)pyrido[3,2-d]pyrimidin-6-yl)-3,8-diazabicyclo[3.2.1]octan-8-yl)but-2-en-1-one] gave an IC50 of 50 to 100 nM. On to `C=CC(=O)N[C@H]1CCN(c2ccc3ncnc(Nc4ccc(Oc5ccc6c(c5)nnn6C)c(C)c4F)c3n2)CC1(C)C` [Compound 343, (S)-N-(1-(4-((2-fluoro-3-methyl-4-((1-methyl-1H-benzo[d][1,2,3]triazol-5-yl)oxy)phenyl)amino)pyrido[3,2-d]pyrimidin-6-yl)-3,3-dimethylpiperidin-4-yl)acrylamide], for which the IC50 lay within 100 to 500 nM. `C=CC(=O)N1CCN(c2ccc3ncnc(Nc4ccc(Oc5ccc6c(c5)ncn6C(F)F)c(C)c4)c3n2)C[C@H]1C` [Compound 340, (R)-1-(4-(4-((4-((1-(difluoromethyl)-1H-benzo[d]imidazol-5-yl)oxy)-3-methylphenyl)amino)pyrido[3,2-d]pyrimidin-6-yl)-2-methylpiperazin-1-yl)prop-2-en-1-one] came in with an IC50 of 50 to 100 nM. The figure for `C=CC(=O)N1CCN(c2ncc3ncnc(Nc4ccc(Oc5cc(F)c6c(c5)ncn6C)c(C)c4F)c3n2)CC1` [Compound 111, 1-(4-(8-((2-fluoro-4-((7-fluoro-1-methyl-1H-benzo[d]imidazol-5-yl)oxy)-3-methylphenyl)amino)pyrimido[5,4-d]pyrimidin-2-yl)piperazin-1-y1)prop-2-en-1-one] is less than 50 nM. `[2H]C1([2H])N(C(=O)C=C)C([2H])([2H])C([2H])([2H])N(c2ncc3ncnc(Nc4ccc(Oc5ccc6c(c5)nnn6C)c(C)c4)c3n2)C1([2H])[2H]` [Compound 36, 1-(4-(8-((3-methyl-4-((1-methyl-1H-benzo[d][1,2,3]triazol-5-yl)oxy)phenyl)amino)pyrimido[5,4-d]pyrimidin-2-yl)piperazin-1-yl-2,2,3,3,5,5,6,6-d8)prop-2-en-1-one]: the concentration for half-maximal inhibition (IC50) was less than 50 nM. Consider `C=CC(=O)N[C@H]1CCCN(c2ncc3ncnc(Nc4ccc(Oc5ccc6c(c5)nnn6C)c(C)c4)c3n2)C1` [Compound 126, (S)-N-(1-(8-((3-methyl-4-((1-methyl-1H-benzo[d][1,2,3]triazol-5-yl)oxy)phenyl)amino)pyrimido [5,4-d]pyrimidin-2-yl)piperidin-3-yl)acrylamide], for which the IC50 lay within 500 to 1000 nM. `C=CC(=O)N1CCN(c2ccc3ncnc(Nc4cc(C)c(Oc5ccn6ncnc6c5)cc4OC)c3n2)CC1` [Compound 371, 1-(4-(4-((4-([1,2,4]triazolo[1,5-a]pyridin-7-yloxy)-2-methoxy-5-methylphenyl)amino)pyrido[3,2-d]pyrimidin-6-yl)piperazin-1-yl)prop-2-en-1-one] registered a 50% inhibitory concentration (IC50) of 50 to 100 nM.

`C=CC(=O)N[C@@H]1CCN(c2ncc3ncnc(Nc4ccc(Oc5ccc6c(c5)nnn6C)c(C)c4)c3n2)C1` [Compound 153, (R)-N-(1-(8-((3-methyl-4-((1-methyl-1H-benzo[d][1,2,3]triazol-5-yl)oxy)phenyl)amino)pyrimido [5,4-d]pyrimidin-2-yl)pyrrolidin-3-yl)acrylamide]: the IC50 is 100 to 500 nM. The molecule `C=CC(=O)N1CCN(c2ccc3ncnc(Nc4ccc(Oc5ccc6c(c5)nnn6C)c(C)c4)c3n2)C[C@@H]1CC#N` [Compound 83, (S)-2-(1-acryloyl-4-(4-((3-methyl-4-((1-methyl-1H-benzo[d][1,2,3]triazol-5-yl)oxy)phenyl)amino)pyrido[3,2-d]pyrimidin-6-yl)piperazin-2-yl)acetonitrile] had an IC50 of less than 50 nM.
